“Also recorded” adds a separate entry of the source. Like-named read-outs stand apart in the source and are kept apart here.
Tests used:
McinOBP4-Wt [1] = biological target: T1, McinOBP4-Wt (Macrocentrus cingulum, UniProt A0A1S6PU99); experiment: Competitive binding assay with 1-NPN as fluorescent reporter, McinOBP4-Wt
Protocol: (§1) One cm light path fluorimeter quartz cuvette was used on a FluoroMax-4 (Horiba Scientific, USA) spectrophotometer at room temperature for fluorescence spectra recording and excitation wavelength of 337 nm was chosen and 300–500 nm for the emission with a 5 nm slit width. Spectra were recorded with 2 μM McinOBP4 in 50 mM Tris-HCl of different pH value, while ligands were added as 1 mM methanol solutions.
The probe was excited at 337 nm and emission spectra were recorded between 300 and 500 nm.
(§2) It was assumed that McinOBP4 was 100% active and the protein-ligand binding was 1:1 ratio at saturation. The obtained data were processed with Graphpad Prism software (Graphpad Software, Inc.) and using a software package SPSS Version 16 (http://www.spss.com). The maximum intensity values of emission were plotted against the 1-NPN concentration for the KD determination, and the values of intensity were used for the evaluation the bound ligands. The curve was linearized using Scatchard Plots to verify the confidence of KD.

McinOBP4-M2 [2] = biological target: T2, McinOBP4-M2 (Macrocentrus cingulum, UniProt A0A1S6PU99, M141L); experiment: Fluorescence binding of 1-NPN to mutant McinOBP4-M2 (Met119 replaced by Leu); settings: McinOBP4-M2, pH 7.4; read-out: Dissociation constant (KD) of 1-NPN
T2 sequence (A0A1S6PU99 23-142 M141L): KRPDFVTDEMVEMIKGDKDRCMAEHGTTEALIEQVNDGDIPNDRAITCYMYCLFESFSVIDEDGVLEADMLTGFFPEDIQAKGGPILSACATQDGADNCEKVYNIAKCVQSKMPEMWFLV
Protocol: (§3) The C-terminal tail truncated form of the McinOBP4 was obtained by removing the last 8 amino acids and inserting a stop codon after Leu112. The McinOBP4-Wt/pGEM-T Easy construct was used as a template. A pair of primer was designed manually and as listed sense primer 5′- […] -3′ (underlined with BamHI) and antisense primer, 5′- […] -3′ (underlined with HindIII) where 113th position residues used as a stop codon. The mutant M2 (Met119) was prepared along with the pair of primer as sense primer 5′- […] -3′ (under lined with BamHI), and antisense primere 5′- […] -3′ (under lined with HindIII). […]
as §1, with “solutions. […]” for “solutions.”
(§4) It was assumed that McinOBP4 was 100% active and the protein-ligand binding was 1:1 ratio at saturation. […] IC50 for other corn odorants were calculated using with Microsoft excel 2010, and the equation, KD = [IC50]/[1+(1–NPN)/K1−NPN] was used for the KD values calculation. […]

McinOBP4-Wt [3] = biological target: T1, McinOBP4-Wt; experiment: Fluorescence binding of 1-NPN to McinOBP4-Wt
Protocol: as §1
To measure the affinity of the fluorescence ligand N-phenyl-1-naphthylamine (1-NPN) to McinOBP4-wt and mutants, a 2 μM solution of the protein in 50 mM Tris-HCl, pH 7.4, was titrated with aliquots of 1 mM ligand in high-performance liquid chromatography (HPLC) purity grade methanol to final concentrations of 2–20 μM. The probe was excited at 337 nm and emission spectra were recorded between 300 and 500 nm. While the other competitor were measured in competitive binding assays, where 1-NPN using as the fluorescent reporter at 2 μM concentration and each competitor (odorants) over concentration ranges 2–14 μM, depending on the different odorants.
as §2, with “KD. IC50 for other corn odorants were calculated using with Microsoft excel 2010, and the equation, KD = [IC50]/[1+(1–NPN)/K1−NPN] was used for the KD values calculation. In this equation [IC50] stands for the ligand concentration where the ligand quenching the fluorescence intensity of 1-NPN to 50%, [1-NPN] and K1−NPN mean free 1-NPN concentration and McinOBP4/1-NPN complex KD values, respectively (Campanacci et al., [2001]; Ban et al., [2002]).” for “KD.”

McinOBP4-M1 = biological target: T3, McinOBP4-M1 (Macrocentrus cingulum, UniProt A0A1S6PU99); experiment: Fluorescence binding of 1-NPN to C-terminal truncated mutant McinOBP4-M1
T3 sequence (A0A1S6PU99 23-134): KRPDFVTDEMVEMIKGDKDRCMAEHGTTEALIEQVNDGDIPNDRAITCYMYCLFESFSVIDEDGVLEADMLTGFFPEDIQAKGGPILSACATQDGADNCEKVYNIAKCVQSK
Protocol: as §3
as §1, with “solutions. […]” for “solutions.”
as §4

McinOBP4-M2 [4] = biological target: T2, McinOBP4-M2; experiment: Competitive binding assay with 1-NPN as fluorescent reporter, McinOBP4-M2; settings: compared to wild type and M1
[5] = recombinant McinOBP4-Wt, pH = 7.4, calculated from IC50, read-out: KD
[6] = recombinant McinOBP4-Wt, pH = 7.4, displacement of 1-NPN, read-out: IC50
[7] = McinOBP4-Wt, pH 7.4, read-out: KD

T1 sequence (A0A1S6PU99 entry or part of it): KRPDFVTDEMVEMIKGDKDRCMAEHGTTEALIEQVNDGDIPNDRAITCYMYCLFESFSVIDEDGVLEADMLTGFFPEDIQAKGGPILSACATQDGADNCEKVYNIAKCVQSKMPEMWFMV

Kd (McinOBP4-Wt [1]; [5]) [µM]	IC50 (McinOBP4-Wt [1]; [6]) [µM]	Compound	IC50 (McinOBP4-Wt [1]) [µM]	Kd (McinOBP4-Wt [1]) [µM]	also measured
19.1	24.5	C=C1CC/C=C(\C)CC[C@@H]2[C@@H]1CC2(C)C (relative stereo) [Trans Caryophelle]	–	–	–
19.8	25.4	C=CC(O)CC (centres unmarked) [1-Penten-3-ol]	–	–	–
36.6	47	CCCCC(C)CC(C)C (centres unmarked) [2,4 Dimethyl Octane]	–	–	–
15.7	20.1	CCCCCc1ccco1 [2-Pentylfuran]	–	–	–
21.3	27.4	C=C/C(C)=C/C/C=C(\C)CCC=C(C)C [Farnsene]	–	–	–
13	16.8	CCCCCCC=O [Heptanal]	–	–	–
17.9	23	C=CC(=C)CCC=C(C)C [Myrcene]	–	–	–
12.5	16.1	CCCCCCCCC=O [Nonanal]	–	–	–
12.8	16.5	CCCCCC/C=C/C=O [Trans-2-Nonenal]	–	–	–

Second part, the compound before the results:

Compound	Kd (McinOBP4-Wt [1]; [5]) [µM]	IC50 (McinOBP4-Wt [1]; [6]) [µM]	IC50 (McinOBP4-Wt [1]) [µM]	Kd (McinOBP4-Wt [1]) [µM]	also measured
c1ccc(Nc2cccc3ccccc23)cc1 [1-NPN, N-phenyl-1-naphthylamine]	–	–	–	–	Kd (McinOBP4-M2 [2]): 8.85 ± 0.63 µM; Affinity of 1-NPN in acidic condition (McinOBP4-Wt [3]; acidic condition (pH 4.4)): did not observe significant loss of binding activity; Affinity of 1-NPN in basic condition (McinOBP4-Wt [3]; basic condition): increase in basic condition; also recorded: increase in affinity; Kd (McinOBP4-Wt [3]; pH 7.4, read-out: Dissociation constant (KD) of 1-NPN): 5.69 ± 0.83 µM; Affinity of 1-NPN in basic condition (McinOBP4-M1; McinOBP4-M1, basic condition): increase in basic condition; also recorded: increase in affinity; Kd (McinOBP4-M1; McinOBP4-M1, pH 7.4, read-out: Dissociation constant (KD) of 1-NPN): 6.99 ± 0.59 µM
CC/C=C\CCO [Cis-3-Hexen-1-ol]	–	–	19.9	15.5	–
C=C(C)[C@H]1CC=C(C)CC1 [Limonene]	4.12	5.29	–	–	Binding affinity to McinOBP4-M2 compared to wild type and first mutant (McinOBP4-M2 [4]): lower binding affinities; also recorded: much weaker; Kd (McinOBP4-Wt [1]; [7]): 4.12 ± 0.7 µM
C=CC(C)(O)CCC=C(C)C (centres unmarked) [Linalool]	–	–	12.3	9.61 ± 0.23	Binding affinity to McinOBP4-M2 compared to wild type and first mutant (McinOBP4-M2 [4]): lower binding affinities; also recorded: much weaker
CCC/C=C/C=O [Trans-2-Hexen-1-al]	–	–	16.4	12.8	–
CCC/C=C/CO [Trans-2-Hexen-1-ol]	–	–	19.8	15.4	–
CCCCC/C=C/C=O [Trans-2-Octenal]	11.9	15.3	–	–	Binding affinity to McinOBP4-M2 compared to wild type and first mutant (McinOBP4-M2 [4]; listed as trans-2-octanal): lower binding affinities; also recorded: much weaker; Kd (McinOBP4-Wt [1]; [7]): 11.8 ± 0.57 µM
CC/C=C/CCOC(C)=O [Trans-3-Hexen-1-ol-Acetate]	6.99	8.98	–	–	Binding affinity to McinOBP4-M2 compared to wild type and first mutant (McinOBP4-M2 [4]): lower binding affinities; also recorded: much weaker; Kd (McinOBP4-Wt [1]; [7]): 6.99 ± 1.23 µM
CC(=O)/C=C/C1C(C)=CCCC1(C)C (stereo not drawn) [α-Ionone]	–	–	24.1	18.7	–
CC1=CCC2CC1C2(C)C (stereo not drawn) [α-Pinene]	–	–	34.2	26.6	–
CC(=O)/C=C/C1=C(C)CCCC1(C)C [β-Ionone]	–	–	15.1	11.8	Binding affinity to McinOBP4-M2 compared to wild type and first mutant (McinOBP4-M2 [4]): lower binding affinities; also recorded: much weaker
C=C1CCC2CC1C2(C)C (stereo not drawn) [β-Pinene]	–	–	18.8	14.7	–
Hexenal	26.9	34.6	–	–	–

From article PMC5297413, “C-terminus Methionene Specifically Involved in Binding Corn Odorants to Odorant Binding Protein4 in Macrocentrus cingulum” (Frontiers in Physiology, 2017)
